Data set [1] in a line: Intrinsic clearance in human liver microsomes after 30 mins. The settings on record: read-out: CLH. Type of data set: ADME.
Data set [2] in a line: Lipophilicity, log D of the compound at pH 7.4. The settings on record: buffer.

Structures are written as SMILES.

Consider `CC(C)(C)OC(=O)N1CCN(c2ccc(OCc3ccc(S(C)(=O)=O)cc3)cc2)CC1`, for which the microsomal CLint in data set [1] was determined as 62.6 µL/min/mg. This molecule also came in with a logD in data set [2] of 3.9.
For `CC(C)(C)OC(=O)N1CCN(c2ccc(OCc3ccc(S(C)(=O)=O)cc3)nn2)CC1`, in that order: 139 µL/min/mg and 2.8.
In the case of `CC(C)(C)OC(=O)N1CCN(c2cnc(OCc3ccc(S(C)(=O)=O)cc3)nc2)CC1`, the microsomal CLint in data set [1] was found to be 86.8 µL/min/mg.
Turning to `CC(C)(C)OC(=O)N1CCN(c2ccc(OCc3ccc(S(C)(=O)=O)cc3)nc2)CC1`, the microsomal CLint in data set [1] is 105 µL/min/mg.
In the case of `CC(C)(C)OC(=O)N1CCN(c2cnc(OCc3ccc(S(C)(=O)=O)cc3)cn2)CC1`, the microsomal CLint in data set [1] is 29.9 µL/min/mg. The molecule further registered a logD in data set [2] of 3.4.
Take `CC(C)(C)OC(=O)N1CCN(c2ncc(OCc3ccc(S(C)(=O)=O)cc3)cn2)CC1`: the microsomal CLint in data set [1] worked out at 60 µL/min/mg.
Regarding `CC(C)(C)OC(=O)N1CCN(c2ncc(OCc3ccc(S(C)(=O)=O)cc3)nn2)CC1`, the microsomal CLint in data set [1] worked out at 131 µL/min/mg. For the same molecule, the pH-dependent lipophilicity (logD) in data set [2] is 2.9.
For `CC(C)(C)OC(=O)N1CCN(c2ccc(OCc3ccc(S(C)(=O)=O)cc3)cn2)CC1`, in data set [1], the microsomal CLint was found to be 247 µL/min/mg. The same molecule showed a logD in data set [2] of 3.2.

As a reminder, the logD is lipophilicity at a set pH, counting ionised and neutral species. Low readings indicate a more hydrophilic compound, high ones a more lipophilic compound.

The record behind these values is ChEMBL document CHEMBL3217707, “A matched molecular pair analysis of in vitro human microsomal metabolic stability measurements for heterocyclic replacements of di-substituted benzene containing compounds identification of those isosteres more likely to have beneficial effects” (Medchemcomm, 2012).
